# Results reported in patent US20130137573A1, “HERBICIDAL COMPOSITIONS COMPRISING, AND METHODS OF USE OF, HERBICIDALLY ACTIVE PYRANDIONES” (priority 2009, published 2013).
# Experiments:
# Format in all cases: in vivo
# IR-64 rice = experiment: Biological Example 4 (Test 110): wet seeded rice (WSR) method, IR-64 rice damage; details: for WSR Rice IR-64 % herbicidal damage: EC050 + 0.2% Adsee, foliar spray, 14 days after application
# Source text: (§1) Rice seeds varieties IR-64 and Arborio, Echinochloa crus-galli (ECHCG), and Leptochloa chinensis (LEFCH) were sown in seed trays containing a standard sandy loam soil saturated with water replicating swampy conditions. They were sown at intervals to achieve plants at the following growth stages at time of application: IR-64 and Arborio rice: from 3 leaves on the main stem to tillering; ECHCG: at two different leaf stages: 0-0.5 leaf and 2-3 leaf; LEFCH: 3 leaf. Glasshouse bay conditions were 30/20° C. day/night; 18/6 hours light/dark; 75% humidity.
# (§2) The test solutions were prepared by mixing the appropriate aliquots of the test substance (here, compound A-13 as EC050 Formulation Example 1) and adjuvant (0.2% Adsee as adjuvant) in de-ionised water to give the desired treatment concentration.
# (§3) Application was as a foliar spray, made using a tracksprayer. 3 days after application the trays were flooded to 2-3 cm water depth, and maintained at this level for the duration of the test.
# (§4) No. of repetitions: 1 test only.
# (§5) A visual assessment of the % herbicidal damage was made 14 days after application (0=no damage to plants, 100=total kill).
# [1] = tested on: Echinochloa crus-galli (ECHCG); experiment: Biological Example 4 (Test 110): wet seeded rice (WSR) method, ECHCG damage; details: for WSR ECHCG 0.5lf % herbicidal damage / WSR ECHCG 3lf % herbicidal damage: EC050 + 0.2% Adsee, foliar spray, 14 days after application; for WSR ECHCG 0.5lf % herbicidal damage: 0.5 leaf stage; for WSR ECHCG 3lf % herbicidal damage: 3 leaf stage
# Source text: as §1, §2, §3, §4, §5
# [2] = tested on: Echinochloa crus-galli (ECHCG); experiment: Biological Example 1 (Test 125): visual herbicidal damage to flooded ECHCG; details: 14 DAA
# Method: Rice seeds, variety IR-64 (an indica type of rice), were sown in seed trays. After 7 days the resulting plants were transplanted as 3 groups of 2 plants, into pots containing a standard sandy loam soil saturated with water replicating swampy conditions. These were grown on for a further 9 days in a glasshouse bay (30/20° C. day/night; 18/6 hours light/dark; 75% humidity). Leptochloa chinensis (LEFCH) and Echinochloa crus-galli (ECHCG) were sown as 2 separate groups of approx 10-20 seeds into pots 13 days prior to application of the test substances, in the same glasshouse conditions as the rice. Therefore, each pot of weeds contained a group of LEFCH and a separate group of ECHCG. All pots of rice and all pots of weeds were flooded to 2-3 cm water depth the day prior to application of the test substances. Growth stages at time of application were as follows: Rice: from 2 leaves on the main stem up to tillering; ECHCG: from 2 leaves on the main stem up to tillering; LEFCH: 2-3 leaves.
# Test solutions were prepared by mixing the appropriate aliquots of the test substances in deionised water to give the desired treatment concentration. Most of the test substances were used as formulated products. Specifically, compound A-13 was applied as the EC050 formulation disclosed in Formulation Example 1 herein (EC=emulsifiable concentrate). Reference compound A-4 was applied as the EC050 formulation disclosed in Reference Formulation Example 2 herein. Pyroxasulfone (a comparator co-herbicide) was applied as the SC050 formulation disclosed in Reference Formulation Example 6 herein (SC=Suspension concentrate). Imazosulfuron (a comparator co-herbicide) was applied as a GR0.25 formulation (GR=granule).
# The test substances which were pure active ingredient (e.g. propyrisulfuron & fenoxasulfone & compound A-16) (labelled as ‘Technical’ in the following results table), were prepared by dissolving in 10.56% Emulsogen EL™ (castor oil ethoxylate, CAS Registry number 61791-12-6), 42.22% N-methylpyrrolidone and 42.22% dipropylene glycol mono-ethyl ether to give a stock solution containing 5% of the test substance and 95% of (Emulsogen EL™, N-methylpyrrolidone and dipropylene glycol mono-ethyl ether).
# Application of the test substances was made by pipetting the required amount of the test solution or the test formulation gently into the flood water of the appropriate pot.
# The test plants were then grown on in the same glasshouse conditions, and watered twice daily keeping the flood water at a depth of 2-3 cm.
# A visual assessment of the % herbicidal damage was made 7 & 14 days after application […], and the results are presented herein as % visual herbicidal damage where 0=no damage to plants and 100=total kill.
# Koshihikari rice = experiment: Biological Example 3 (Test 120): damage to flooded transplanted rice; details: for Koshihikari rice % herbicidal damage, Mean of 2 repetitions / Koshihikari rice % herbicidal damage, Repetition A / Koshihikari rice % herbicidal damage, Repetition B / rice phytotoxicity (span of the 2 repetitions): EC050, 14DAA; for rice phytotoxicity (span of the 2 repetitions): Koshihikari
# Method: Rice seeds, variety Koshihikari, were sown in seed trays, after 7 days they were transplanted as 3 groups of 2 plants, into pots containing a standard clay soil saturated with water replicating swampy conditions. These were grown on for 9 days in a glasshouse bay (30/20° C. day/night; 18/6 hours light/dark; 75% humidity). Approx 10-20 seeds of Echinochloa crus-galli were sown into pots 13 days prior to application, in the same conditions as the rice. All pots were flooded to 2-3 cm water depth the day prior to application. Growth stages at time of application were: Rice: 2-3 leaves; ECHCG: 2-3 leaves.
# The test solutions were prepared by mixing the appropriate aliquots of the test substance (here, compound A-13 as the EC050 Formulation Example 1 disclosed herein) in de-ionised water to give the desired treatment concentration.
# Application was made by pipetting the required amount of the test solution gently into the flood water of the appropriate pot.
# The test plants were grown on in the same glasshouse conditions, and watered twice daily keeping the flood water at a depth of 2-3 cm.
# as §5
compound,measurement,setting,value
"CC1(C)OC(C)(C)C(O)=C(c2cc(-c3ccc(Cl)cc3F)ccc2C2CC2)C1=O [compound A-13, 4-(4′-Chloro-4-cyclopropyl-2′-fluorobiphenyl-3-yl)-2,2,6,6-tetramethylpyran-3,5-dione]",WSR Rice IR-64 % herbicidal damage,IR-64 rice; 8 g/ha,0%
same,WSR Rice IR-64 % herbicidal damage,IR-64 rice; 60 g/ha,0%
same,WSR Rice IR-64 % herbicidal damage,IR-64 rice; 125 g/ha,5%
same,WSR Rice IR-64 % herbicidal damage,IR-64 rice; 500 g/ha,35%
same,selectivity margin between rice and ECHCG,"IR-64 rice; Biological Example 4, wet seeded rice, 60 and 125 g/ha",good selectivity margin
same,WSR ECHCG 0.5lf % herbicidal damage,[1]; 8 g/ha,45%
same,WSR ECHCG 3lf % herbicidal damage,[1]; 8 g/ha,65%
same,WSR ECHCG control,"[1]; 60 and 125 g/ha, 2 growth stages, 0.5 leaf and 3 leaf, wet seeded rice method",90-100%
same,WSR ECHCG 0.5lf % herbicidal damage,[1]; 60 g/ha,90%
same,WSR ECHCG 3lf % herbicidal damage,[1]; 60 g/ha,100%
same,WSR ECHCG 0.5lf % herbicidal damage,[1]; 125 g/ha,100%
same,WSR ECHCG 3lf % herbicidal damage,[1]; 125 g/ha,100%
same,WSR ECHCG 0.5lf % herbicidal damage,[1]; 500 g/ha,100%
same,WSR ECHCG 3lf % herbicidal damage,[1]; 500 g/ha,100%
same,ECHCG control,[2]; 60 g/ha applied alone (EC050),35%
same,ECHCG control,[2]; 90 g/ha applied alone (EC050),55%
same,ECHCG control,[2]; 120 g/ha applied alone (EC050),55%
same,"Koshihikari rice % herbicidal damage, Mean of 2 repetitions",Koshihikari rice; 125 g/ha,13%
same,"Koshihikari rice % herbicidal damage, Repetition A",Koshihikari rice; 125 g/ha,10%
same,"Koshihikari rice % herbicidal damage, Repetition B",Koshihikari rice; 125 g/ha,15%
same,rice phytotoxicity (span of the 2 repetitions),Koshihikari rice; 125 g/ha,10-15%
same,"Koshihikari rice % herbicidal damage, Mean of 2 repetitions",Koshihikari rice; 250 g/ha,20%
same,"Koshihikari rice % herbicidal damage, Repetition A",Koshihikari rice; 250 g/ha,20%
same,"Koshihikari rice % herbicidal damage, Repetition B",Koshihikari rice; 250 g/ha,20%
same,"Koshihikari rice % herbicidal damage, Mean of 2 repetitions",Koshihikari rice; 500 g/ha,25%
same,"Koshihikari rice % herbicidal damage, Repetition A",Koshihikari rice; 500 g/ha,20%
same,"Koshihikari rice % herbicidal damage, Repetition B",Koshihikari rice; 500 g/ha,30%
same,rice phytotoxicity (span of the 2 repetitions),Koshihikari rice; 500 g/ha,20-30%
same,selectivity margin for use on rice (Koshihikari vs ECHCG),"Koshihikari rice; Biological Example 3, 125 g/ha vs 500 g/ha",reasonable selectivity margin
